Measurements as given in patent US20240391862A1, “(1,4,5-TRISUBSTITUTED-1H-PYRAZOL-3-YL)OXY-2-ALKOXY ALKYL ACIDS AND THEIR DERIVATIVES, THEIR SALTS AND THEIR USE AS HERBICIDAL AGENTS” (Bayer AKtiengesellschaft, priority 2021, published 2024).

Tests used:
ALOMY = assay: Post-emergence herbicidal effect, greenhouse pot test; type: in vivo, Alopecurus myosuroides; settings: Alopecurus myosuroides, 504 h, visual rating about 3 weeks after treatment, read-out: Post-emergence effect against ALOMY
In short: (§1)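 Weeds sown in sandy loam, greenhouse-grown 2–3 weeks, then sprayed at one-leaf stage with WP or EC formulations in water plus 0.5% additive at 600 l/ha. Rates 20 to 320 g/ha. Visual rating after about 3 weeks versus untreated controls (100% = plants dead, 0% = like control).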

AVEFA = assay: as above; type: in vivo, Avena fatua; settings: Avena fatua, 504 h, visual rating about 3 weeks after treatment, read-out: Post-emergence effect against AVEFA
In short: as §1

SETVI = assay: as above; type: in vivo, Setaria viridis; settings: Setaria viridis, 504 h, read-out: Post-emergence effect against SETVI in %
In short: as §1

MATIN = assay: as above; type: in vivo, Tripleurospermum inodorum; settings: Tripleurospermum inodorum, 504 h, read-out: Post-emergence effect against MATIN in %
In short: as §1

PHBPU = assay: as above; type: in vivo, Ipomoea purpurea; settings: Ipomoea purpurea, 504 h, read-out: Post-emergence effect against PHBPU in %
In short: as §1

ZEAMX = assay: Post-emergence herbicidal effect and crop plant compatibility, greenhouse pot test; type: in vivo, Zea mays; settings: Zea mays, 504 h, 20 g/ha, one-leaf stage, rated visually after about 3 weeks vs untreated controls, read-out: Post-emergence effect at 20 g/ha against ZEAMX in %
In short: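 Greenhouse pot plants in sandy loam receive a one-leaf-stage spray at 20 to 320 g/ha. Activity is assessed visually around 3 weeks afterwards on a 0–100% scale, where 100% means the plants have died.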

ECHCG = assay: Post-emergence herbicidal effect, greenhouse pot test; type: in vivo, Echinochloa crus-galli; settings: Echinochloa crus-galli, 504 h; for pest or weed control at 80 g/ha / pest or weed control at 320 g/ha: read-out: Post-emergence effect against ECHCG in %
In short: as §1

DIGSA = assay: as above; type: in vivo, Digitaria sanguinalis; settings: Digitaria sanguinalis, 504 h, visual rating about 3 weeks after treatment, read-out: Post-emergence effect against DIGSA
In short: as §1

VIOTR = assay: as above; type: in vivo, Viola tricolor; settings: Viola tricolor, 504 h, read-out: Post-emergence effect against VIOTR in %
In short: as §1

POLCO = assay: as above; type: in vivo, Fallopia convolvulus; settings: Fallopia convolvulus, 504 h, read-out: Post-emergence effect against POLCO in %
In short: as §1

AMARE = assay: as above; type: in vivo, Amaranthus retroflexus; settings: Amaranthus retroflexus, 504 h, 320 g/ha, visual rating about 3 weeks after treatment, read-out: Post-emergence effect against AMARE
In short: as §1

ABUTH = assay: as above; type: in vivo, Abutilon theophrasti; settings: Abutilon theophrasti, 504 h, visual rating about 3 weeks after treatment, read-out: Post-emergence effect against ABUTH
In short: as §1

KCHSC = assay: as above; type: in vivo; settings: for pest or weed control at 80 g/ha / pest or weed control at 320 g/ha: 504 h, read-out: Post-emergence effect against KCHSC in %
In short: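 Visual rating of activity against untreated plants (100% = plants died, 0% = no effect), done about 3 weeks after treatment. Compounds applied at 20–320 g/ha as aqueous spray (600 l/ha, 0.5% additive) from WP or EC formulations onto one-leaf-stage plants grown in sandy loam under greenhouse conditions.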

LOLRI = assay: as above; type: in vivo, Lolium rigidum; settings: Lolium rigidum, 504 h, read-out: Post-emergence effect against LOLRI in %
In short: as §1

VERPE = assay: as above; type: in vivo, Veronica persica; settings: Veronica persica, 504 h, read-out: Post-emergence effect against VERPE in %
In short: as §1

**Q.** Which pest or weed control at 320 g/ha (ALOMY) does the source give for `CCOC(=O)C(OC)Oc1nn(-c2ncccc2F)c(-c2ccc(F)nc2)c1Cl` (stereo not drawn) [Example I-48] here?
**A.** 90%

**Q.** And the pest or weed control at 80 g/ha (AVEFA)?
**A.** 90%

**Q.** And the pest or weed control at 320 g/ha (AVEFA)?
**A.** 90%

**Q.** What about the pest or weed control at 80 g/ha (SETVI) of the same compound?
**A.** 90%

**Q.** What about the pest or weed control at 320 g/ha (SETVI) of the same compound?
**A.** 90%

**Q.** And the pest or weed control at 80 g/ha (MATIN)?
**A.** 80%

**Q.** And the pest or weed control at 320 g/ha (MATIN)?
**A.** 90%

**Q.** What about the pest or weed control at 80 g/ha (PHBPU) of the same compound?
**A.** 90%

**Q.** And the pest or weed control at 320 g/ha (PHBPU)?
**A.** 90%

**Q.** What about the plant injury at 20 g/ha (ZEAMX) of the same compound?
**A.** 0%

**Q.** What about the pest or weed control at 80 g/ha (ECHCG) of the same compound?
**A.** 90%

**Q.** What about the pest or weed control at 320 g/ha (ECHCG) of the same compound?
**A.** 90%

**Q.** What about the pest or weed control at 80 g/ha (DIGSA; 80 g/ha) of the same compound?
**A.** 80%

**Q.** What about the pest or weed control at 320 g/ha (DIGSA) of the same compound?
**A.** 90%

**Q.** What about the pest or weed control at 20 g/ha (VIOTR; 20 g/ha) of the same compound?
**A.** 80%

**Q.** What about the pest or weed control at 80 g/ha (VIOTR) of the same compound?
**A.** 90%

**Q.** What about the pest or weed control at 320 g/ha (VIOTR) of the same compound?
**A.** 90%

**Q.** What about the pest or weed control at 20 g/ha (POLCO; 20 g/ha) of the same compound?
**A.** 80%

**Q.** What about the pest or weed control at 80 g/ha (POLCO) of the same compound?
**A.** 80%

**Q.** What about the pest or weed control at 320 g/ha (POLCO) of the same compound?
**A.** 80%

**Q.** And the pest or weed control at 320 g/ha (AMARE)?
**A.** 80%

**Q.** What about the pest or weed control at 80 g/ha (ABUTH) of the same compound?
**A.** 80%

**Q.** And the pest or weed control at 320 g/ha (ABUTH)?
**A.** 90%

**Q.** What about the pest or weed control at 80 g/ha (KCHSC) of the same compound?
**A.** 80%

**Q.** And the pest or weed control at 320 g/ha (KCHSC)?
**A.** 90%

**Q.** And the pest or weed control at 80 g/ha (LOLRI; 80 g/ha)?
**A.** 90%

**Q.** What about the pest or weed control at 320 g/ha (LOLRI) of the same compound?
**A.** 90%

**Q.** What about the pest or weed control at 80 g/ha (VERPE) of the same compound?
**A.** 80%

**Q.** And the pest or weed control at 320 g/ha (VERPE)?
**A.** 90%

**Q.** What does the source list for `COC(Oc1nn(-c2ncccc2F)c(-c2cncc(F)c2)c1C1CC1)C(=O)O` (stereo not drawn) [Example I-68]?
**A.** pest or weed control at 80 g/ha (ALOMY; 80 g/ha): 90%; pest or weed control at 320 g/ha (ALOMY): 90%; pest or weed control at 80 g/ha (AVEFA): 90%; pest or weed control at 320 g/ha (AVEFA): 90%; pest or weed control at 80 g/ha (SETVI): 90%; pest or weed control at 320 g/ha (SETVI): 90%; pest or weed control at 80 g/ha (MATIN): 80%; pest or weed control at 320 g/ha (MATIN): 90%; pest or weed control at 80 g/ha (PHBPU): 90%; pest or weed control at 320 g/ha (PHBPU): 90%; plant injury at 20 g/ha (ZEAMX): 0%; pest or weed control at 20 g/ha (ECHCG; 20 g/ha, visual rating about 3 weeks after treatment, read-out: Post-emergence effect against ECHCG): 80%; pest or weed control at 80 g/ha (ECHCG): 90%; pest or weed control at 320 g/ha (ECHCG): 90%; pest or weed control at 320 g/ha (DIGSA): 90%; pest or weed control at 80 g/ha (VIOTR): 90%; pest or weed control at 320 g/ha (VIOTR): 90%; pest or weed control at 80 g/ha (POLCO): 80%; pest or weed control at 320 g/ha (POLCO): 80%; pest or weed control at 320 g/ha (AMARE): 80%; pest or weed control at 80 g/ha (ABUTH): 80%; pest or weed control at 320 g/ha (ABUTH): 90%; Post-emergence effect against KCHSC in % (KCHSC; 20 g/ha): 90%; pest or weed control at 80 g/ha (KCHSC): 90%; pest or weed control at 320 g/ha (KCHSC): 90%; pest or weed control at 320 g/ha (LOLRI): 90%; pest or weed control at 80 g/ha (VERPE): 90%; pest or weed control at 320 g/ha (VERPE): 90%
